Laboratory results published in patent publication US20230106032A1, “IMIDAZOTRIAZINES ACTING ON CANCER VIA INHIBITION OF CDK12” (Bayer Aktiengesellschaft, priority 2020, published 2023).

Tests used:
CDK12 = biological target: T1, CDK12 (Homo sapiens, UniProt Q9NYV4); assay: CDK12 protein level in CAL-120 cells (Protein Simple); format: cell-based; conditions: 18 h, CDK12/HSP90 peak area ratio, read-out: CDK12 protein level in CAL-120 breast ca cells DC50-[mol/l] (median)
T1 construct: endogenous in cells; host or cells: CAL-120 human breast cancer cells (DSMZ ACC 459)
Procedure: CAL-120 human breast cancer cells (DSMZ ACC 459) were seeded at 300,000 cells/well in 6-well plates containing 2 mL of growth medium (DMEM, 10% FCS, glutamine) and incubated for 24 h at 37° C. in an humidified incubator. Test compounds were added at various concentrations, control wells received solvent (DMSO), and the plates were incubated for another 18 h at 37° C. Cells were washed 2 times with PBS and lysed in 75 microL lysis buffer (MSD-Puffer (MSD, #R^60TX-2), +1% SDS+PhosSTOP (Roche #04906837001)+ complete mini (Roche #04693159001)) by scraping. The lysates were pushed 2 times through Qiashedders followed by centrifugation at 14,000 rpm for 30-50 sec. The supernatant was stored at −20° C. […] CDK12 and HSP90 (loading control) were detected using anti-human CDK12 antibody (Cell Signaling Technologies (CST) #11793) at 1:25 dilution and anti-human HSP90 antibody (CST #4877) at 1:5,000 dilution. CDK12 and HSP90 peak areas were determined using Protein Simple Compass software. Ratio of CDK12/HSP90 peak areas were calculated for each sample, and DC50 values (degrading concentration to achieve 50% reduction relative to vehicle treated control) were determined by means of a 4 parameter fit.

CDK2/CycE = biological target: T2, CDK2/CycE (Homo sapiens, UniProt P24941); assay: CDK2/CycE kinase assay (TR-FRET, 2 mM ATP); format: biochemical; conditions: read-out: CDK2/CyclinE, 2 mM ATP (high ATP) IC50-[mol/l] (median)
T2 construct: purchased ProQinase GmbH (Freiburg, Germany); host or cells: insect cells (Sf9)
Description: CDK2/CycE-inhibitory activity of compounds of the present invention was quantified employing the CDK2/CycE TR-FRET assay as described in the following paragraphs.
Recombinant fusion proteins of GST and human CDK2 and of GST and human CycE, expressed in insect cells (Sf9) and purified by Glutathion-Sepharose affinity chromatography, were purchase from ProQinase GmbH (Freiburg, Germany). As substrate for the kinase reaction biotinylated peptide biotin-Ttds-YISPLKSPYKISEG (C-terminus in amid form) was used which can be purchased e.g. form the company JERINI peptide technologies (Berlin, Germany).
For the assay 50 nanoL of a 100 fold concentrated solution of the test compound in DMSO was pipetted into a black low volume 384 well microtiter plate or a black 1536 well microtiter plate (both Greiner Bio-One, Frickenhausen, Germany), 2 microL of a solution of CDK2/CycE in aqueous assay buffer [50 millimol/L Tris/HCl pH 8.0, 10 millimol/L MgCl2, 1.0 millimol/L dithiothreitol, 0.1 millimol/L sodium ortho-vanadate, 0.01% (v/v) Nonidet-P40 (Sigma)] were added and the mixture was incubated for 15 min at 22° C. to allow pre-binding of the test compounds to the enzyme before the start of the kinase reaction. Then the kinase reaction was started by the addition of 3 microL of a solution of adenosine-tri-phosphate (ATP, 3.33 millimol/L=> final conc. in the 5 microL assay volume is 2 millimol/L) and substrate (1.25 micromol/L=> final conc. in the 5 microL assay volume is 0.75 micromol/L) in assay buffer and the resulting mixture was incubated for a reaction time of 25 min at 22° C. The concentration of CDK2/CycE was adjusted depending of the activity of the enzyme lot and was chosen appropriate to have the assay in the linear range, typical concentrations were in the range of 10 ng/ml. The reaction was stopped by the addition of 3 microL of a solution of TR-FRET detection reagents (0.333 micromol/L streptavidine-XL665 [Cisbio Bioassays, Codolet, France] and 1.67 nanomol/L anti-RB(pSer807/pSer8l 1)-antibody from BD Pharmingen [#558389] and 2 nanomol/L LANCE EU-W1024 labeled anti-mouse IgG antibody [Perkin-Elmer, product no. AD0077, as an alternative a Terbium-cryptate-labeled anti-mouse IgG antibody from Cisbio Bioassays can be used]) in an aqueous EDTA-solution (167 millimol/L EDTA, 0.2% (w/v) bovine serum albumin in 100 millimol/L HEPES pH 7.5).
The resulting mixture was incubated 1 h at 22° C. to allow the formation of complex between the phosphorylated biotinylated peptide and the detection reagents. Subsequently the amount of phosphorylated substrate was evaluated by measurement of the resonance energy transfer from the Eu-chelate to the streptavidine-XL. Therefore, the fluorescence emissions at 620 nm and 665 nm after excitation at 350 nm was measured in a TR-FRET reader, e.g. a Pherastar (BMG Labtechnologies, Offenburg, Germany) or a Viewlux (Perkin-Elmer). The ratio of the emissions at 665 nm and at […] was taken as the measure for the amount of phosphorylated substrate. The data were normalised (enzyme reaction without inhibitor=0% inhibition, all other assay components but no enzyme=100% inhibition).

T1 sequence (Q9NYV4 whole entry): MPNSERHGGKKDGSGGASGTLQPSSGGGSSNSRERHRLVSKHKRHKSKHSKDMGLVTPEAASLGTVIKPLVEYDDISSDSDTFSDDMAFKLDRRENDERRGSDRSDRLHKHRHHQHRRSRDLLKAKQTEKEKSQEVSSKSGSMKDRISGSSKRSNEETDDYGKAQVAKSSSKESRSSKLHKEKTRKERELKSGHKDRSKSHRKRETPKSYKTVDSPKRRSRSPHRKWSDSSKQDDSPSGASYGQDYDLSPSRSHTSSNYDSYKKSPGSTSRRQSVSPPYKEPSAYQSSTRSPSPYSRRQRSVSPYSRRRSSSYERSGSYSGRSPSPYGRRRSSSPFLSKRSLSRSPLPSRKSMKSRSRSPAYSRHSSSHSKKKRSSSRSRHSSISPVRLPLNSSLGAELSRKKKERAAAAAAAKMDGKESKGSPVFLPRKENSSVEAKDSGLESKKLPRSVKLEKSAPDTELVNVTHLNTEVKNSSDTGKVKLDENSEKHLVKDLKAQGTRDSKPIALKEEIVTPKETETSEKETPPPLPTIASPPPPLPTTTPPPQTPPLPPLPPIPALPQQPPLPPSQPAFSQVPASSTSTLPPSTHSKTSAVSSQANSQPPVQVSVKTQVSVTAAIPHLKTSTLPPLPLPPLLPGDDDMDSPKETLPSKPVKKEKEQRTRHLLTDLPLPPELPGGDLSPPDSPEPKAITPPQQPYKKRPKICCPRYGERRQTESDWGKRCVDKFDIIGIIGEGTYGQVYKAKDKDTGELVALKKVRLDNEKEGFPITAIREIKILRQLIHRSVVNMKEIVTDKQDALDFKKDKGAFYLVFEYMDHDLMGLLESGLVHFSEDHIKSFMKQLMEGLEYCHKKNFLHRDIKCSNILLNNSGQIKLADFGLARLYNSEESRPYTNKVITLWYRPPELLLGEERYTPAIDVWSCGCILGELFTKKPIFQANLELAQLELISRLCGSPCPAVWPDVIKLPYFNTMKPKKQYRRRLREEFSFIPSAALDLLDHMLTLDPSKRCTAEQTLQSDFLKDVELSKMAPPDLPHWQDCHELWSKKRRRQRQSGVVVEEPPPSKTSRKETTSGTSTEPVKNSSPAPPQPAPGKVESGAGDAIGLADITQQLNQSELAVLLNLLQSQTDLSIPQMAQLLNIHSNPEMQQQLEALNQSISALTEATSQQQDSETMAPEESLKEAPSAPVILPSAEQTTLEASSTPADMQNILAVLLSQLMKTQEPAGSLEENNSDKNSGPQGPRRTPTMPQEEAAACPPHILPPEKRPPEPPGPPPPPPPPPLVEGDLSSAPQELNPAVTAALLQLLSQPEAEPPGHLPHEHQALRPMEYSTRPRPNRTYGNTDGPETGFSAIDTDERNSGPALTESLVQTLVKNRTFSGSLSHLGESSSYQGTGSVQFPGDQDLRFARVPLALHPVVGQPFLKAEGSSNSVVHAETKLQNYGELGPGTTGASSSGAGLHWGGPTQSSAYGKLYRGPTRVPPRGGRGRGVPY
T1 sequence (O75909 whole entry partner): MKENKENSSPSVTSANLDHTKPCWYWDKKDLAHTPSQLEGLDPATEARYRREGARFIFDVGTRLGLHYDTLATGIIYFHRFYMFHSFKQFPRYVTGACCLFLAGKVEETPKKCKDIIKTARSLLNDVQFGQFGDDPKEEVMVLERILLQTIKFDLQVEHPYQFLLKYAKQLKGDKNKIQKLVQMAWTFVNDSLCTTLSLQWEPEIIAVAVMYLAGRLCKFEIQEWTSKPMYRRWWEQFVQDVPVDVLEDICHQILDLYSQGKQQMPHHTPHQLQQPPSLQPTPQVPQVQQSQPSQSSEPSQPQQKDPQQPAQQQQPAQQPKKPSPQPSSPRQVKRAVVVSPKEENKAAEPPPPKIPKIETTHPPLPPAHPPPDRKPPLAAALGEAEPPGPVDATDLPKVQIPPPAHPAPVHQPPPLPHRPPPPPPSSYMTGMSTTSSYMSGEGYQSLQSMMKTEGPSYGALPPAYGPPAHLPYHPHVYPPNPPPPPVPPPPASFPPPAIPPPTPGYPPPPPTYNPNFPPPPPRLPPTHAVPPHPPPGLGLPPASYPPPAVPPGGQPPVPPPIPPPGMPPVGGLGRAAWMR

Structure (SMILES)	DC50 (CDK12) [µM]	IC50 (CDK2/CycE) [µM]
Brc1cnc2c(NCc3nc4ccccc4[nH]3)nc(N3CCOCC3)nn12 [Example 1, N-[(1H-benzimidazol-2-yl)methyl]-7-bromo-2-(morpholin-4-yl)imidazo[2,1-f][1,2,4]triazin-4-amine]	< 0.003	11.7
N#Cc1cnc2c(NCc3nc4ccccc4[nH]3)nc(N3CCOCC3)nn12 [Example 2, 4-{[(1H-benzimidazol-2-yl)methyl]amino}-2-(morpholin-4-yl)imidazo[2,1-f][1,2,4]triazine-7-carbonitrile]	0.00581	> 20
CN(CC(C)(C)O)c1nc(NCc2nc3ccccc3[nH]2)c2ncc(C(F)(F)F)n2n1 [Example 30, 1-[{4-[(1H-benzimidazol-2-ylmethyl)amino]-7-(trifluoromethyl)imidazo[2,1-f][1,2,4]triazin-2-yl}(methyl)amino]-2-methylpropan-2-ol]	–	4.78
